Data published in patent publication US8901118B2, “Compounds and methods for kinase modulation, and indications therefor” (Plexxikon Inc., priority 2010, dated 2014).
Values belong to the compound of their own block, whether it stands above or below them.

Columns and labels:
[1] = target: CYP3A4(BFC) (Homo sapiens, UniProt P08684); assay: CYP3A4(BFC) inhibition; format: in vitro ADME; settings: CYP3A4, substrate BFC; read-out: Cyp IC50 3A4(BFC)
In short: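 This fluorescence assay tracks how test compounds reduce CYP3A4 turnover of BFC, with enzyme and substrate from BD Biosciences. A 10-point 1:1 dilution series in cofactor mix (1.3% NADPH Regeneration Solution A, 1.04% Solution B, 5% acetonitrile, 0.05% DMSO) was dispensed at 10 μL into 384 well plates, preincubated 10 minutes at 37° C, then incubated 30 min and read on a Tecan Safire 2.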

[2] = target: T1, BCR-NTRK2 BaF3 cells (Homo sapiens, UniProt Q16620); assay: BaF3 BCR-NTRK2 cell proliferation assay (ATPlite); format: cell-based; settings: read-out: Inhibition of Cell Proliferation IC50, BCR/BaF3 TrkB
T1 construct: fused on or other part: P11274 (Breakpoint cluster region protein)
In short: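 Cells are plated overnight: BaF3 at 10,000/well in G418 medium without WEHI/IL-3, MV-4-11 at 25,000/well in IMDM with 10% FBS. An 8-point 1:3 compound titration (10 μM top) is then added, and plates are incubated 3 days at 37 °C before ATPlite readout and IC50 determination.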

[3] = target: T2, CYP1A2 (Homo sapiens, UniProt P05177); assay: CYP1A2 inhibition (fluorescent substrate CEC); format: in vitro ADME; settings: read-out: Cyp IC50 1A2
T2 sequence (P05177 1-516): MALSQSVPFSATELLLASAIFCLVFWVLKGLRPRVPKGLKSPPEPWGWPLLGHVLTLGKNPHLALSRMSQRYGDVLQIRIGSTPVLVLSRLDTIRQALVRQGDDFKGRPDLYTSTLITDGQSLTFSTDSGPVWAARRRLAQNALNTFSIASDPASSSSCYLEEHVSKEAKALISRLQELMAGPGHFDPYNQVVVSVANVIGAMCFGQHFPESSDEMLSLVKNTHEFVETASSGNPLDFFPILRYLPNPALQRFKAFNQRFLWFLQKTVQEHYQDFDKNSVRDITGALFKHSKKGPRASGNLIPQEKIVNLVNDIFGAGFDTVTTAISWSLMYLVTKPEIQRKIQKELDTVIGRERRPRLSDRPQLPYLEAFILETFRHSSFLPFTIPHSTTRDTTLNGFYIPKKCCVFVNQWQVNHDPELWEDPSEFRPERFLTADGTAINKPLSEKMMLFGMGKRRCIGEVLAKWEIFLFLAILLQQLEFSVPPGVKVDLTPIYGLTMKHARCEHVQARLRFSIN
In short: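 Test compound titrated 1:1 across ten concentrations; metabolite fluorescence measured after 37 °C incubation of 15 min (CYP1A2), 30 min (CYP2C19, CYP2D6) or 45 min (CYP2C9). IC50 from signal versus concentration.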

T1 sequence (Q16620 538-807): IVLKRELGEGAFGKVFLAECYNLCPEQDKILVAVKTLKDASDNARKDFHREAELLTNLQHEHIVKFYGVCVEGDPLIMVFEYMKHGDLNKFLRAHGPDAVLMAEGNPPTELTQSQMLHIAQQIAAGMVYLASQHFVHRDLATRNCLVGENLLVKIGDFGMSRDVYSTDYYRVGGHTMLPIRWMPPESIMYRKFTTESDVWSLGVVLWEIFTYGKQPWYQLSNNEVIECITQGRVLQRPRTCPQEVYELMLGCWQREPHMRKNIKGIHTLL
Sequence of CYP3A4(BFC) (P08684 whole entry): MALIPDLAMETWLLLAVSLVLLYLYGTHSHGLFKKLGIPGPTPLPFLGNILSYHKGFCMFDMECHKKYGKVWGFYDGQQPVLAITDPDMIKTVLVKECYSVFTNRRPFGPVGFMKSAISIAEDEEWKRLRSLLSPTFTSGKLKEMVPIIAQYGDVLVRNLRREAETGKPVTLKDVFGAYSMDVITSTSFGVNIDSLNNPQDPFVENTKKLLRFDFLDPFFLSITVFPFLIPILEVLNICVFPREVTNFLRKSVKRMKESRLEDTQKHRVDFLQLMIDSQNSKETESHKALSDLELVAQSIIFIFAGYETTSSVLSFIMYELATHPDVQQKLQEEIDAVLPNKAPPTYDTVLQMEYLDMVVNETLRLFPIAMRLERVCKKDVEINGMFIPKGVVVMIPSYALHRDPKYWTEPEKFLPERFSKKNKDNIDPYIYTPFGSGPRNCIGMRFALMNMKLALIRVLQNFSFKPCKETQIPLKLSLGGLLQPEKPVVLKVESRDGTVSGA

SMILES: Clc1cnc2[nH]cc(Cc3cnc(NC4CCCCC4)nc3)c2c1 [Compound P-3001, [5-(5-chloro-1H-pyrrolo[2,3-b]pyridin-3-ylmethyl)-pyrimidin-2-yl]-cyclohexyl-amine]
- IC50 [1]: > 10 µM
- IC50 [2]: > 10 µM
- IC50 [3]: > 10 µM

SMILES: FC1(F)CCC(Nc2ncc(Cc3c[nH]c4ncc(Cl)cc34)cn2)CC1 [Compound P-3004]
- IC50 [1]: > 10 µM
- IC50 [2]: < 10 µM
- IC50 [3]: > 10 µM

SMILES: Clc1cnc2[nH]cc(Cc3cnc(NC4CCCCCC4)nc3)c2c1 [Compound P-3006, [5-(5-Chloro-1H-pyrrolo[2,3-b]pyridin-3-ylmethyl)-pyrimidin-2-yl]-cycloheptyl-amine]
- IC50 [1]: > 10 µM
- IC50 [2]: > 10 µM
- IC50 [3]: > 10 µM

SMILES: Cc1cnc2[nH]cc(Cc3cnc(Nc4ccc(C(F)(F)F)nc4)nc3)c2c1 [Compound P-3018, [5-(5-Methyl-1H-pyrrolo[2,3-b]pyridin-3-ylmethyl)-pyrimidin-2-yl]-(6-trifluoromethyl-pyridin-3-yl)-amine]
- IC50 [1]: < 5 µM
- IC50 [2]: < 0.1 µM
- IC50 [3]: > 10 µM

SMILES: COc1ccc(Nc2ccc(Cc3c[nH]c4ncc(C)cc34)c(F)n2)cn1 [Compound P-3019, [6-fluoro-5-(5-methyl-1H-pyrrolo[2,3-b]pyridin-3-ylmethyl)-pyridin-2-yl]-(6-methoxy-pyridin-3-yl)-amine]
- IC50 [1]: > 10 µM
- IC50 [2]: < 0.1 µM
- IC50 [3]: > 10 µM

SMILES: CCOc1ccc(Nc2ccc(Cc3c[nH]c4ncc(C)cc34)c(F)n2)cn1 [Compound P-3039, (6-ethoxy-pyridin-3-yl)-[6-fluoro-5-(5-methyl-1H-pyrrolo[2,3-b]pyridin-3-ylmethyl)-pyridin-2-yl]-amine]
- IC50 [1]: > 10 µM
- IC50 [2]: < 1 µM
- IC50 [3]: > 10 µM

SMILES: COc1ccc(Nc2ccc(C(=O)c3c[nH]c4ncc(C)cc34)c(F)n2)cn1 [Compound P-3040, [2-Fluoro-6-(6-methoxy-pyridin-3-ylamino)-pyridin-3-yl]-(5-methyl-1H-pyrrolo[2,3-b]pyridin-3-yl)-methanone]
- IC50 [1]: > 10 µM
- IC50 [2]: < 0.01 µM
- IC50 [3]: > 10 µM

SMILES: Cc1cnc2[nH]cc(Cc3ccc(Nc4ccc(C)nc4)nc3F)c2c1 [Compound P-3041, [6-Fluoro-5-(5-methyl-1H-pyrrolo[2,3-b]pyridin-3-ylmethyl)-pyridin-2-yl]-(6-methyl-pyridin-3-yl)-amine]
- IC50 [1]: 5 to 10 µM
- IC50 [2]: < 1 µM
- IC50 [3]: > 10 µM

SMILES: Cc1cnc2[nH]cc(C(=O)c3ccc(Nc4ccc(C)nc4)nc3F)c2c1 [Compound P-3043, [2-Fluoro-6-(6-methyl-pyridin-3-ylamino)-pyridin-3-yl]-(5-methyl-1H-pyrrolo[2,3-b]pyridin-3-yl)-methanone]
- IC50 [1]: > 10 µM
- IC50 [2]: < 0.1 µM
- IC50 [3]: > 10 µM

SMILES: Cc1ccc(Nc2ccc(C(=O)c3c[nH]c4ncc(Cl)cc34)c(F)n2)cn1 [Compound P-3044, (5-Chloro-1H-pyrrolo[2,3-b]pyridin-3-yl)-[2-fluoro-6-(6-methyl-pyridin-3-ylamino)-pyridin-3-yl]-methanone]
- IC50 [1]: > 10 µM
- IC50 [2]: < 0.1 µM
- IC50 [3]: > 10 µM

SMILES: CCc1ccc(Nc2ccc(Cc3c[nH]c4ncc(C)cc34)c(F)n2)cn1 [Compound P-3048, (6-Ethyl-pyridin-3-yl)-[6-fluoro-5-(5-methyl-1H-pyrrolo[2,3-b]pyridin-3-ylmethyl)-pyridin-2-yl]-amine]
- IC50 [1]: > 10 µM
- IC50 [3]: > 10 µM

SMILES: CCc1ccc(Nc2ccc(C(=O)c3c[nH]c4ncc(C)cc34)c(F)n2)cn1 [Compound P-3049, [6-(6-Ethyl-pyridin-3-ylamino)-2-fluoro-pyridin-3-yl]-(5-methyl-1H-pyrrolo[2,3-b]pyridin-3-yl)-methanone]
- IC50 [1]: > 10 µM
- IC50 [3]: > 10 µM

SMILES: Cc1cnc2[nH]cc(Cc3ccc(Nc4ccc(C5CC5)nc4)nc3F)c2c1 [Compound P-3050, (6-Cyclopropyl-pyridin-3-yl)-[6-fluoro-5-(5-methyl-1H-pyrrolo[2,3-b]pyridin-3-ylmethyl)-pyridin-2-yl]-amine]
- IC50 [1]: > 10 µM
- IC50 [3]: > 10 µM

SMILES: Cc1cnc2[nH]cc(C(=O)c3ccc(Nc4ccc(C5CC5)nc4)nc3F)c2c1 [Compound P-3051, [6-(6-Cyclopropyl-pyridin-3-ylamino)-2-fluoro-pyridin-3-yl]-(5-methyl-1H-pyrrolo[2,3-b]pyridin-3-yl)-methanone]
- IC50 [1]: > 10 µM
- IC50 [3]: > 10 µM

SMILES: O=C(c1ccc(Nc2ccc(C3CC3)nc2)nc1F)c1c[nH]c2ncccc12 [Compound P-3052, [6-(6-Cyclopropyl-pyridin-3-ylamino)-2-fluoro-pyridin-3-yl]-(1H-pyrrolo[2,3-b]pyridin-3-yl)-methanone]
- IC50 [1]: > 10 µM
- IC50 [3]: > 10 µM

SMILES: Fc1nc(Nc2ccc(C3CC3)nc2)ccc1Cc1c[nH]c2ncccc12 [Compound P-3053, (6-Cyclopropyl-pyridin-3-yl)-[6-fluoro-5-(1H-pyrrolo[2,3-b]pyridin-3-ylmethyl)-pyridin-2-yl]-amine]
- IC50 [1]: > 10 µM
- IC50 [3]: > 10 µM

Now from value to compound:

- IC50 [1]: > 10 µM
- IC50 [2]: < 0.1 µM
- IC50 [3]: > 10 µM
SMILES: COc1ccc(Nc2ccc(Cc3c[nH]c4ncnc(OC)c34)c(F)n2)cn1 [Compound P-4001, [6-Fluoro-5-(4-methoxy-7H-pyrrolo[2,3-d]pyrimidin-5-ylmethyl)-pyridin-2-yl]-(6-methoxy-pyridin-3-yl)-amine]

- IC50 [1]: > 10 µM
- IC50 [2]: < 1 µM
- IC50 [3]: > 10 µM
SMILES: COc1ccc(Nc2ccc(Cc3c[nH]c4ncnc(C)c34)c(F)n2)cn1 [Compound P-4002, [6-Fluoro-5-(4-methyl-7H-pyrrolo[2,3-d]pyrimidin-5-ylmethyl)-pyridin-2-yl]-(6-methoxy-pyridin-3-yl)-amine]

- IC50 [1]: > 10 µM
- IC50 [2]: < 1 µM
- IC50 [3]: > 10 µM
SMILES: COc1ncnc2[nH]cc(Cc3ccc(Nc4ccc(Cl)nc4)nc3F)c12 [Compound P-4003, (6-Chloro-pyridin-3-yl)-[6-fluoro-5-(4-methoxy-7H-pyrrolo[2,3-d]pyrimidin-5-ylmethyl)-pyridin-2-yl]-amine]

- IC50 [1]: > 10 µM
- IC50 [2]: < 0.01 µM
- IC50 [3]: > 10 µM
SMILES: COc1ncnc2[nH]cc(Cc3ccc(Nc4ccc(C5CC5)nc4)nc3F)c12 [Compound P-4004, (6-Cyclopropyl-pyridin-3-yl)-[6-fluoro-5-(4-methoxy-7H-pyrrolo[2,3-d]pyrimidin-5-ylmethyl)-pyridin-2-yl]-amine]

- IC50 [1]: > 10 µM
- IC50 [2]: < 0.01 µM
- IC50 [3]: > 10 µM
SMILES: CCOc1ccc(Nc2ccc(Cc3c[nH]c4ncnc(OC)c34)c(F)n2)cn1 [Compound P-4005, (6-Ethoxy-pyridin-3-yl)-[6-fluoro-5-(4-methoxy-7H-pyrrolo[2,3-d]pyrimidin-5-ylmethyl)-pyridin-2-yl]-amine]

- IC50 [1]: > 10 µM
- IC50 [2]: < 0.01 µM
- IC50 [3]: > 10 µM
SMILES: CCOc1ccc(Nc2ccc(Cc3c[nH]c4ncnc(C)c34)c(F)n2)cn1 [Compound P-4006, (6-Ethoxy-pyridin-3-yl)-[6-fluoro-5-(4-methyl-7H-pyrrolo[2,3-d]pyrimidin-5-ylmethyl)-pyridin-2-yl]-amine]

- IC50 [1]: > 10 µM
- IC50 [2]: < 0.1 µM
- IC50 [3]: > 10 µM
SMILES: CCc1ccc(Nc2ccc(Cc3c[nH]c4ncnc(OC)c34)c(F)n2)cn1 [Compound P-4007, (6-Ethyl-pyridin-3-yl)-[6-fluoro-5-(4-methoxy-7H-pyrrolo[2,3-d]pyrimidin-5-ylmethyl)-pyridin-2-yl]-amine]

- IC50 [1]: 5 to 10 µM
- IC50 [2]: < 0.1 µM
- IC50 [3]: > 10 µM
SMILES: CCOc1ccc(Nc2ccc(Cc3c[nH]c4ncnc(OCCOC)c34)c(F)n2)cn1 [Compound P-4008, (6-Ethoxy-pyridin-3-yl)-{6-fluoro-5-[4-(2-methoxy-ethoxy)-7H-pyrrolo[2,3-d]pyrimidin-5-ylmethyl]-pyridin-2-yl}-amine]

- IC50 [1]: > 10 µM
- IC50 [2]: < 0.01 µM
- IC50 [3]: > 10 µM
SMILES: CCc1ccc(Nc2ccc(Cc3c[nH]c4ncnc(C)c34)c(F)n2)cn1 [Compound P-4009, (6-Ethyl-pyridin-3-yl)-[6-fluoro-5-(4-methyl-7H-pyrrolo[2,3-d]pyrimidin-5-ylmethyl)-pyridin-2-yl]-amine]

- IC50 [1]: 5 to 10 µM
- IC50 [3]: > 10 µM
SMILES: CCn1cc(Nc2ccc(C(=O)c3c[nH]c4ncnc(C5CC5)c34)c(F)n2)cn1 [Compound P-4037, (4-Cyclopropyl-7H-pyrrolo[2,3-d]pyrimidin-5-yl)-[6-(1-ethyl-1H-pyrazol-4-ylamino)-2-fluoro-pyridin-3-yl]-methanone]
